Where two headings read alike, the source gives them in different places.
Key:
[1] = Cytotoxicity in Vero cells; settings: African green monkey, Vero cells (kidney)
[2] = Cytotoxicity in Huh7 cells; assay type: cell-based; settings: human
[3] = Cytotoxicity in PBM cells; assay type: cell-based; settings: human
Procedure: (§1) The toxicity of the compounds was assessed in Vero, human PBM, CEM (human lymphoblastoid), MT-2, and HepG2 cells, as described previously (see Schinazi R. F., Sommadossi J.-P., Saalmann V., Cannon D. L., Xie M.-Y., Hart G. C., Smith G. A. & Hahn E. F. Antimicrob. Agents Chemother. 1990, 34, 1061-67). Cycloheximide was included as positive cytotoxic control, and untreated cells exposed to solvent were included as negative controls. The cytotoxicity IC50 or CC50 was obtained from the concentration-response curve using the median effective method described previously (see Chou T.-C. & Talalay P. Adv. Enzyme Regul. 1984, 22, 27-55; Belen'kii M. S. & Schinazi R. F. Antiviral Res. 1994, 25, 1-11).

SARS-CoV-2 [4] = test: Anti-SARS-CoV-2 activity (Vero); assay type: cell-based; settings: Severe acute respiratory syndrome coronavirus 2, MOI 0.1, 48 hr
SARS-CoV-2 [5] = test: Anti-SARS-CoV-2 activity (Calu3); assay type: cell-based
in vitro [6] = settings: human, Caco-2
HCoV-OC43 = test: Anti-HCoV-OC43 activity; assay type: cell-based
SARS-CoV-2 [7] = test: Anti-SARS-CoV-2 activity (Caco2); settings: Severe acute respiratory syndrome coronavirus 2, Caco-2, 72 h; for EC50: read-out: Anti-SARS-CoV-2 Activity (Caco2) EC50
SARS-CoV-2 [8] = test: Anti-SARS-CoV-2 activity, 3D primary culture (HAE-ALI); assay type: cell-based; settings: Severe acute respiratory syndrome coronavirus 2, air-liquid interface
in vitro [9] = settings: human
[10] = Cytotoxicity in CEM cells; assay type: cell-based; settings: human, CEM lymphoblastoid cells
Procedure: as §1

HepG2 cells = test: Mitochondrial toxicity in HepG2 cells (MtDNA / rDNA); settings: Homo sapiens
[11] = test system: mitochondrial DNA (COXII gene); test: as above; settings: human, HepG2 cells
[12] = test system: rDNA (rRNA gene, nuclear reference); test: as above; settings: human, HepG2 cells
Omicron [13] = test: microbe, parasite or virus in culture; settings: for EC90: Severe acute respiratory syndrome coronavirus 2, Caco-2, read-out: Anti-Omicron Activity (Caco-2) EC90
SARS-CoV-2 [14] = test: Anti-SARS-CoV-2 activity, 3D primary culture (Organoids); assay type: cell-based
Omicron [15] = test: Anti-Omicron activity (Calu-3); assay type: cell-based, SARS-CoV-2
[16] = Severe acute respiratory syndrome coronavirus 2, Calu-3, Calu3, MOI 1.0, 72 hr
[17] = Severe acute respiratory syndrome coronavirus 2, Caco-2, read-out: Anti-Omicron Activity (Caco-2) EC50
[18] = Severe acute respiratory syndrome coronavirus 2, Omicron, Calu-3, read-out: Anti-Omicron Activity (Calu-3) EC50
[19] = Severe acute respiratory syndrome coronavirus 2, Omicron, Calu-3, read-out: Anti-Omicron Activity (Calu-3) EC90

O=c1nc(NO)ccn1[C@@H]1S[C@H](CO)C(O)C1O (stereo in doubt) [Compound 17, 1-((2R,3S,4R,5R)-3,4-dihydroxy-5-(hydroxymethyl)-tetrahydrothiophen-2-yl)-4-(hydroxyamino) pyrimidin-2(1H)-one]
CC50 [1]: > 100 µM
CC50 [2]: > 100 µM
CC50 [3]: > 100 µM
EC50 (SARS-CoV-2 [4]): < 10000 nM
EC50 (SARS-CoV-2 [5]; [16]): < 10000 nM

O=c1ccn([C@@H]2S[C@H](CO)[C@@H](O)[C@H]2O)c(=O)[nH]1 [Compound 8, 1-((2R,3R,4S,5R)-3,4-dihydroxy-5-(hydroxymethyl)tetrahydrothiophen-2-yl)pyrimidine-2,4(1H,3H)-dione]
CC50 [1]: 68.3 µM
CC50 (in vitro [6]): > 100 µM
EC50 (HCoV-OC43; Betacoronavirus 1, OC43, read-out: Anti-HCoV-OC43 Activity EC50): 2200 to 2500 nM
EC90 (HCoV-OC43; Betacoronavirus 1, OC43, read-out: Anti-HCoV-OC43 Activity EC90): 6.1 to 7.3 µM
EC50 (SARS-CoV-2 [7]): 1100 nM
EC50 (SARS-CoV-2 [8]): 40 nM
EC90 (SARS-CoV-2 [8]): 100 nM
CC50 [2]: > 100 µM
CC50 (in vitro [9]): > 100 µM
CC50 [10]: 20.5 µM
inhibition at 100 µM (HepG2 cells; HepG2, read-out: inhibition of MtDNA at 100 μM): < 1%
inhibition at 100 µM (HepG2 cells; HepG2, read-out: inhibition of rDNA at 100 μM): 36.3%
CC50 at 7 days [11]: > 100 µM
CC50 at 7 days [12]: > 100 µM
EC50 (Omicron [13]; [17]): 8.2 µM
EC90 (Omicron [13]): > 10000 nM
CC50 [3]: > 100 µM
EC50 (SARS-CoV-2 [4]): 400 nM
EC90 (SARS-CoV-2 [4]): 800 nM
EC50 (SARS-CoV-2 [14]; Severe acute respiratory syndrome coronavirus 2, 3D primary culture, organoids, read-out: Anti-SARS-CoV-2 Activity (Organoids) EC50): 700 nM
EC50 (Omicron [15]; Severe acute respiratory syndrome coronavirus 2, Calu-3, read-out: Anti-Omicron Activity (Calu-3) EC50): 900 to 1300 nM
EC90 (Omicron [15]; Severe acute respiratory syndrome coronavirus 2, Calu-3, read-out: Anti-Omicron Activity (Calu-3) EC90): 2700 to 4400 nM
EC90 (SARS-CoV-2 [5]; [16]): 3.5 µM

Nc1ccn([C@@H]2S[C@H](CO)[C@@H](O)[C@H]2O)c(=O)n1 [Compound 9, 4-amino-1-((2R,3R,4S,5R)-3,4-dihydroxy-5-(hydroxymethyl)tetrahydrothiophen-2-yl)pyrimidin-2(1H)-one]
CC50 [1]: 71.8 µM
EC50 (SARS-CoV-2 [7]): 4900 nM
EC90 (SARS-CoV-2 [7]; read-out: Anti-SARS-CoV-2 Activity (Caco2) EC90): > 10 µM
CC50 [2]: 93.1 µM
CC50 [10]: 28 µM
CC50 [3]: > 100 µM
EC50 (SARS-CoV-2 [4]): 200 nM
EC90 (SARS-CoV-2 [4]): 4500 nM
EC50 (SARS-CoV-2 [5]; [16]): 1900 nM
EC90 (SARS-CoV-2 [5]; [16]): 3.9 µM

CC(C)OC(=O)[C@H](C)N[P@](=O)(OC[C@H]1S[C@@H](n2ccc(=O)[nH]c2=O)[C@H](O)[C@@H]1O)Oc1ccccc1 [Compound 13, Isopropyl ((S)-(((2R,3S,4R,5R)-5-(2,4-dioxo-3,4-dihydropyrimidin-1(2H)-yl)-3,4-dihydroxytetrahydrothiophen-2-yl)methoxy)(phenoxy)phosphoryl)-L-alaninate]
CC50 [1]: > 100 µM
CC50 [2]: > 100 µM
CC50 [10]: > 100 µM
CC50 [3]: > 100 µM
EC50 (SARS-CoV-2 [4]): > 10000 nM

CC(C)OC(=O)[C@H](C)N[P@](=O)(OC[C@H]1S[C@@H](n2ccc(N)nc2=O)[C@H](O)[C@@H]1O)Oc1ccccc1 [Compound 16, Isopropyl ((S)-(((2R,3S,4R,5R)-5-(4-amino-2-oxopyrimidin-1(2H)-yl)-3,4-dihydroxytetrahydrothiophen-2-yl)methoxy)(phenoxy)phosphoryl)-L-alaninate]
CC50 [1]: > 100 µM
CC50 [2]: > 100 µM
CC50 [10]: > 100 µM
CC50 [3]: > 100 µM
EC50 (SARS-CoV-2 [4]): > 10000 nM

O=c1nc(NO)ccn1[C@@H]1O[C@H](CO)[C@@H](O)[C@H]1O [NHC, N4-hydroxycytidine]
CC50 [1]: 16.5 µM
CC50 [10]: 2.6 µM
EC50 (Omicron [13]; [17]): > 10 µM
EC50 (Omicron [13]; Severe acute respiratory syndrome coronavirus 2, Caco-2, read-out: Anti-Omicron Activity (Caco-2) EC50, value in parentheses): 13.3 µM
EC50 (Omicron [15]; [18]): 400 nM
EC90 (Omicron [15]; [19]): 1200 nM

CCC(CC)COC(=O)[C@H](C)N[P@](=O)(OC[C@H]1O[C@@](C#N)(c2ccc3c(N)ncnn23)[C@H](O)[C@@H]1O)Oc1ccccc1 [Remdesivir, reference compound]
EC50 (HCoV-OC43; Betacoronavirus 1, OC43; read-out: Anti-HCoV-OC43 Activity EC50): 7 to 30 nM
EC90 (HCoV-OC43; Betacoronavirus 1, OC43; read-out: Anti-HCoV-OC43 Activity EC90): 0.03 to 0.08 µM
EC50 (SARS-CoV-2 [8]): 600 nM
CC50 [2]: 1.5 µM
CC50 [10]: 12 µM
EC50 (Omicron [13]; [17]): 0.05 µM
EC90 (Omicron [13]): 400 nM
CC50 [3]: 6.4 µM
EC50 (SARS-CoV-2 [14]; Severe acute respiratory syndrome coronavirus 2, read-out: Anti-SARS-CoV-2 Activity (Organoids) EC50): 700 nM
EC90 (SARS-CoV-2 [14]; Severe acute respiratory syndrome coronavirus 2, 3D primary culture, organoids): 1500 nM
EC50 (Omicron [15]; [18]): 200 to 300 nM
EC90 (Omicron [15]; [19]): 600 to 700 nM
EC50 (SARS-CoV-2 [5]; Severe acute respiratory syndrome coronavirus 2, Calu-3, 72 h): 100 nM

C[C@@H]1C[C@@H]([C@H](O)CC2CC(=O)NC(=O)C2)C(=O)[C@@H](C)C1 [cyclohexamide, Cycloheximide, reference compound]
CC50 (in vitro [6]): 10 µM
CC50 (in vitro [9]): 10 µM
